For one series, the target named is T1, OATP1B1 (Homo sapiens, UniProt Q9Y6L6).
T1 sequence (Q9Y6L6 1-691): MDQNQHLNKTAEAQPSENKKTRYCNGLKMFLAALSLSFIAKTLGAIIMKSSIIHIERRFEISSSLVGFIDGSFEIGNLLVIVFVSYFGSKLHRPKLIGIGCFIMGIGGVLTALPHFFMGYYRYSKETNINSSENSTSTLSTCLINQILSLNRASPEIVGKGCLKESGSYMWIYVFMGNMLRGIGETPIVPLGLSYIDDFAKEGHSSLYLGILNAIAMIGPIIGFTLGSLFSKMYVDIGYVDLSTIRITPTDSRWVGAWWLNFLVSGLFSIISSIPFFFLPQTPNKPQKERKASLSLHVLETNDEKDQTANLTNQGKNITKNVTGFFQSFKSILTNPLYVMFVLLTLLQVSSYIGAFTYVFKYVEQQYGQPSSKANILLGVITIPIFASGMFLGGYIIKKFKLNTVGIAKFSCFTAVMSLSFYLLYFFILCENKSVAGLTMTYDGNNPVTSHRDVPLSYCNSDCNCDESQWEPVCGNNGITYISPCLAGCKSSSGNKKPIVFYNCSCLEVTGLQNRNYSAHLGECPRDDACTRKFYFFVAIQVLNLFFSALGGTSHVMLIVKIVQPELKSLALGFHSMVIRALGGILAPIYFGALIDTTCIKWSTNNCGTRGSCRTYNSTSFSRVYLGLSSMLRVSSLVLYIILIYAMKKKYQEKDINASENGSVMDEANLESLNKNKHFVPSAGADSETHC
Nature of the series: Substrate statement, OATP1B1. Format: in vitro ADME.

Series [1] can be described thus: Solubility of test article in water and methanol. To be noted: 25° C. Format: physicochemical.
A further series concerns the target T2, human OCT2 (Homo sapiens, UniProt O15244).
T2 construct: expressed in transfected cells; host or cells: CHO (protocol UPT-CHO-OCT2-Metf; control: parental CHO-K1)
T2 sequence (O15244 1-555): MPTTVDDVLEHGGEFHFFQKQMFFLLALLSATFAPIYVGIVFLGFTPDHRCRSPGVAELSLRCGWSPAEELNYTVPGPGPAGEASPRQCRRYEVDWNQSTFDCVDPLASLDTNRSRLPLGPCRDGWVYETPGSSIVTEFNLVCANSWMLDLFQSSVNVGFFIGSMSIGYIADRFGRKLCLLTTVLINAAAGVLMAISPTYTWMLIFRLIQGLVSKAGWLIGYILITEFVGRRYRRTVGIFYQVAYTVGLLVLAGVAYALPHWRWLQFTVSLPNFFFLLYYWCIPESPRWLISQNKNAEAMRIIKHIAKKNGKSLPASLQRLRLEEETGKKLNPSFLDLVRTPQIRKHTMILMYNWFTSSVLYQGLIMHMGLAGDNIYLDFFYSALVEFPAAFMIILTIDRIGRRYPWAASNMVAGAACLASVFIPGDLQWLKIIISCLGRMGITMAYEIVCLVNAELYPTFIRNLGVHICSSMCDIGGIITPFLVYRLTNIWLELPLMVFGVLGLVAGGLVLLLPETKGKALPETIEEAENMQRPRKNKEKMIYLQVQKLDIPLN
Nature of the series: Uptake transporter substrate feasibility assay, OCT2. It is filed as in vitro ADME. Set-up: key to Substrate: NIO: No interaction observed. How it is done: Uptake experiments were performed using CHO, MDCKII, or HEK293 cells stably expressing the respective uptake transporters.
Cells were cultured at 37±1° C. in an atmosphere of 95:5 air:CO2 as described in Table 4 and were plated onto standard 24-well tissue culture plates at 2×10^5 cells/well. The uptake of the TA was determined using cells overexpressing the respective uptake transporter and control cells, at two incubation time points (2 and 20 min) and at two concentrations (1 and 10 μM) of TA to determine whether or not the TA was actively taken up into the cells.
Before the experiment, the medium was removed and the cells were washed twice with 300 μl of HK buffer (pH 7.4) (prepared from Sigma chemicals). Cellular uptake of TA into the cells was measured by adding 300 μl of HK buffer containing TA and incubating them at 37±1° C. Reactions were quenched by removing the HK buffer containing the TA and the cells were washed twice with 300 μl of HK buffer. Cells were lysed by adding 300 μl of MeOH:H2O (2:1) and incubated for 20 minutes at 4±1° C. The amount of TA in the cell lysate was determined by LC-MS/MS. The amount of protein in each well was quantified using the BCA kit for protein determination (Sigma-Aldrich, St Louis, Mo., USA). Uptake of the probe substrate in control cells provided background activity values for all data points. Incubation without reference inhibitor (solvent only) provided 100% activity values. A reference inhibitor served as positive control for inhibition.
The fold accumulation value was defined as the ratio of uptake of TA or probe substrate into transfected and control cells:
[formula] UPTTRP: accumulated amount of TA or probe substrate in transfected cells normalized by protein content [pmol/mg protein] UPTCTL: accumulated amount of TA or probe substrate in control cells normalized by protein content [pmol/mg protein]
If the fold accumulation is >2 and can be inhibited by a known inhibitor of the transporter, the TA can be considered to be a substrate of the respective transporter.

Each structure is given as a SMILES string.

As to `[O-][n+]1cccc(C(Cl)=NOCC(O)CN2CCCCC2)c1` (stereo not shown) [Arimoclomol, N-[2-hydroxy-3-(1-piperidinyl)-propoxy]-pyridine-1-oxide-3-carboximidoyl chloride], the “Substrate of the transporter (in words)” value on OATP1B1 and on human OCT2 was “not a substrate” in each case. Besides, the Solubility in series [1] (methanol) worked out at 0.4 g/100 mL; in series [1] (water) it was 14 g/100 mL. For the same molecule, the Fold accumulation is 0.95 at human OCT2 (1 μM, 2 min); 1.28 on human OCT2 (1 μM, 20 min); 0.87 at human OCT2 (10 μM, 2 min); 1.05 on human OCT2 (10 μM, 20 min); less than 2 at human OCT2 (1 and 10 μM, 2 and 20 min). The Substrate result on human OCT2 (Table 2) was “NIO”.

(Values after patent publication US11229633B2, “Arimoclomol formulation” (Orphazyme A/S, priority 2014, dated 2022).)
